Calls of active or inactive are those of the source. The calls are words filed in the database; no cut-off is given here. Non-standard residues stand in square brackets, D forms with d. Residues, ends and D or L forms follow the SMILES beside them. *: point of attachment. X1 = C[C@H](N*)c1nc2cccc(-c3ccccc3)c2[nH]1; Ala(cPent) = N[C@@H](CC1CCCC1)C(=O)O; Pentanoyl(4-Me) = CC(C)CCC(=O)*; Dap(Me) = CNC[C@H](N)C(=O)O
What was measured:
[1] = system: MOLM-13; assay: cells; conditions: Homo sapiens, MOLM-13, 120 h
Description: Anticancer activity against human MOLM-13 cells harbouring MLL-AF9 assessed as inhibition of cell growth treated for 5 days measured by CCK-8 kit method

[2] = system: MOLM-13; assay: Inhibition of methylation of H3K79 in human MOLM-13 cells assessed as inhibition of methylation at HOXA11 gene cluster by chromatin immunoprecipitation assay; type: functional, cell-based
[3] = system: MOLM-13; assay: Inhibition of methylation of H3K79 in human MOLM-13 cells assessed as inhibition of methylation at HOXA6 gene cluster by chromatin immunoprecipitation assay; type: functional, cell-based
[4] = system: MOLM-13; assay: Inhibition of methylation of H3K79 in human MOLM-13 cells assessed as inhibition of methylation at HOXA7 gene cluster by chromatin immunoprecipitation assay; type: functional, cell-based
[5] = system: MOLM-13; assay: Induction of apoptosis in human MOLM-13 cells at 0.25 to 1 uM by Annexin V-FITC/PI staining based flow cytometry analysis; type: functional, cell-based; conditions: dose 0.25-1 µM, time 5-9 day, TDE = time-dependent effect
[6] = system: KOPN-8; assay: cells; conditions: Homo sapiens, KOPN-8, 192 h
Description: Anticancer activity against human KOPN-8 cells harbouring MLL-ENL assessed as inhibition of cell growth treated for 8 days measured by CCK-8 kit method

[7] = system: MOLM-13; assay: Down regulation of HOXA11 gene in human MOLM-13 cells by RNA-sequencing analysis; type: functional, cell-based
[8] = system: MOLM-13; assay: Inhibition of methylation of H3K79 in human MOLM-13 cells assessed as inhibition of methylation at HOXA4 gene cluster by chromatin immunoprecipitation assay; type: functional, cell-based
[9] = system: K562; assay: Anticancer activity against human K562 cells assessed as inhibition of cell growth treated for 8 days measured by CCK-8 kit method; type: functional, cell-based; conditions: K562, 192 h
[10] = system: MOLM-13; assay: Down regulation of CNOT6L gene in human MOLM-13 cells by RNA-sequencing analysis; type: functional, cell-based
[11] = Stability in human plasma assessed as compound remaining measured upto 1440 mins by HPLC analysis; type: ADME, cell-free; conditions: read-out: Stability
[12] = system: MOLM-13; assay: Induction of apoptosis in human MOLM-13 cells at 0.25 to 1 uM assessed as cleaved PARP by Annexin V-FITC/PI staining based flow cytometry analysis; type: functional, cell-based; conditions: dose 0.25-1 µM
[13] = system: MOLM-13; assay: Down regulation of HOXA10 gene in human MOLM-13 cells by RNA-sequencing analysis; type: functional, cell-based
[14] = system: MOLM-13; assay: Down regulation of RUNX1 gene in human MOLM-13 cells by RNA-sequencing analysis; type: functional, cell-based
[15] = system: MOLM-13; assay: Inhibition of methylation of H3K79 in human MOLM-13 cells assessed as inhibition of methylation at HOXA3 gene cluster by chromatin immunoprecipitation assay; type: functional, cell-based
[16] = system: MOLM-13; assay: Down regulation of GBE1 gene in human MOLM-13 cells by RNA-sequencing analysis; type: functional, cell-based
[17] = system: MOLM-13; assay: Inhibition of methylation of H3K79 in human MOLM-13 cells assessed as inhibition of methylation at HOXA13 gene cluster by chromatin immunoprecipitation assay; type: functional, cell-based
[18] = system: MOLM-13; assay: Down regulation of MCM2 gene in human MOLM-13 cells by RNA-sequencing analysis; type: functional, cell-based
[19] = system: MOLM-13; assay: cells; conditions: Homo sapiens, MOLM-13, 144 h
Description: Anticancer activity against human MOLM-13 cells harbouring MLL-AF9 assessed as inhibition of cell growth treated for 6 days measured by CCK-8 kit method

[20] = system: MOLM-13; assay: Down regulation of MEIS1 gene in human MOLM-13 cells by RNA-sequencing analysis; type: functional, cell-based
[21] = system: MOLM-13; assay: Down regulation of CDK1 gene in human MOLM-13 cells by RNA-sequencing analysis; type: functional, cell-based
[22] = system: MV4-11; assay: Anticancer activity against human MV4-11 cells assessed as inhibition of cell growth treated for 8 days measured by CCK-8 kit method; type: functional, cell-based; conditions: MV4-11, 192 h
[23] = Apparent permeability across apical to basolateral side in human Caco-2 cells; type: ADME, cell-based
[24] = system: MOLM-13; assay: cells; conditions: Homo sapiens, MOLM-13, 168 h
Description: Anticancer activity against human MOLM-13 cells harbouring MLL-AF9 assessed as inhibition of cell growth treated for 7 days measured by CCK-8 kit method

[25] = system: MOLM-13; assay: Down regulation of CDKN1B gene in human MOLM-13 cells by RNA-sequencing analysis; type: functional, cell-based
[26] = system: MOLM-13; assay: Down regulation of HOXA5 gene in human MOLM-13 cells by RNA-sequencing analysis; type: functional, cell-based
[27] = system: MOLM-13; assay: Inhibition of methylation of H3K79 in human MOLM-13 cells assessed as inhibition of methylation at HOXA9 gene cluster by chromatin immunoprecipitation assay; type: functional, cell-based
[28] = system: MOLM-13; assay: Down regulation of SSBP2 gene in human MOLM-13 cells by RNA-sequencing analysis; type: functional, cell-based
[29] = system: MOLM-13; assay: Down regulation of SKP2 gene in human MOLM-13 cells by RNA-sequencing analysis; type: functional, cell-based
[30] = system: MOLM-13; assay: cells; conditions: Homo sapiens, MOLM-13, 96 h
Description: Anticancer activity against human MOLM-13 cells harbouring MLL-AF9 assessed as inhibition of cell growth treated for 4 days measured by CCK-8 kit method

[31] = system: MOLM-13; assay: Inhibition of methylation of H3K79 in human MOLM-13 cells assessed as inhibition of methylation at HOXA10 gene cluster by chromatin immunoprecipitation assay; type: functional, cell-based
[32] = target: T1, Protein AF-9 (Homo sapiens) (UniProt P42568); assay: Binding affinity to AF9 in human MOLM-13 cells assessed as thermal stabilization of protein at 60 degree Celsius at 1 uM for 12 hrs by CETSA; type: cell-based
T1 sequence (whole entry): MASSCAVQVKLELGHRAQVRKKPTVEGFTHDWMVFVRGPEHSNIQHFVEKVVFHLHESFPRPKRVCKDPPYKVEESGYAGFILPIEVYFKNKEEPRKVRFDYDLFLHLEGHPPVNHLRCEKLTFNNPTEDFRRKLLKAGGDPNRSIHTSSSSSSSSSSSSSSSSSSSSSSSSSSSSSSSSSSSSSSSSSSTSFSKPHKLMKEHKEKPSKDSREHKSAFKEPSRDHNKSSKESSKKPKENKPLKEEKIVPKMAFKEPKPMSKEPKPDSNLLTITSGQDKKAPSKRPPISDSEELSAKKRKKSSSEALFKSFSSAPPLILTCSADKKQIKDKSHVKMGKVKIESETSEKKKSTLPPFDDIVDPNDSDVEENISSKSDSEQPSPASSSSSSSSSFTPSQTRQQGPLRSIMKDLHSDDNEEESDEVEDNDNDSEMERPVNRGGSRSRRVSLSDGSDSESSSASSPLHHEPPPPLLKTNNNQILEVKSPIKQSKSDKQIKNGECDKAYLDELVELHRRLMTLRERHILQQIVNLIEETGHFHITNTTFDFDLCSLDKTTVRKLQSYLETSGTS

[33] = system: MOLM-13; assay: Down regulation of DCUN1D1 gene in human MOLM-13 cells by RNA-sequencing analysis; type: functional, cell-based
[34] = target: T1, Protein AF-9 (Homo sapiens); assay: Binding affinity to AF9 in human MOLM-13 cells assessed as thermal stabilization of protein at 55 degree Celsius for 12 hrs by CETSA; type: cell-based; conditions: dose <= 4.0 µM, DDE = dose-dependent effect
[35] = system: MOLM-13; assay: Down regulation of […] gene in human MOLM-13 cells by RNA-sequencing analysis; type: functional, cell-based
[36] = system: MOLM-13; assay: Inhibition of methylation of H3K79 in human MOLM-13 cells assessed as inhibition of methylation at HOXA5 gene cluster by chromatin immunoprecipitation assay; type: functional, cell-based
[37] = system: RS4-11; assay: Anticancer activity against human RS4-11 cells assessed as inhibition of cell growth treated for 8 days measured by CCK-8 kit method; type: functional, cell-based; conditions: RS4-11, 192 h
[38] = system: MOLM-13; assay: cells; conditions: Homo sapiens, MOLM-13, 216 h
Description: Anticancer activity against human MOLM-13 cells harbouring MLL-AF9 assessed as inhibition of cell growth treated for 9 days measured by CCK-8 kit method

IC50 [1]: 703 nM | IC50 [6]: 100 nM | IC50 [9]: 59000 nM | remaining at 24 h [11]: 81.5% | IC50 [19]: 382 nM | IC50 [22]: 220 nM | Papp A→B [23]: 1.97 ×10⁻⁶ cm/s | IC50 [24]: 167 nM | IC50 [30]: 972 nM | Activity [32]: Active | Activity [34]: Dde | IC50 [37]: 240 nM | IC50 [38]: 44 nM
Structure (SMILES): CNC[C@H](NC(=O)[C@@H](NC(=O)[C@@H]1CCCN1C(=O)CCC(C)C)C(C)C)C(=O)N[C@@H](CC1CCCC1)C(=O)N[C@@H](C)c1nc2cccc(-c3ccccc3)c2[nH]1 ({Pentanoyl(4-Me)}-PV[Dap(Me)][Ala(cPent)]-X1)
inhibition [2]: Active | inhibition [3]: Active | inhibition [4]: Active | Activity [5]: Tde | Activity [7]: Active | inhibition [8]: Active | Activity [10]: Active | Activity [12]: Active | Activity [13]: Active | Activity [14]: Active | inhibition [15]: Active | Activity [16]: Active | inhibition [17]: Active | Activity [18]: Active | Activity [20]: Active | Activity [21]: Active | Activity [25]: Active | Activity [26]: Active | inhibition [27]: Active | Activity [28]: Active | Activity [29]: Active | inhibition [31]: Active | Activity [33]: Active | Activity [35]: Active | inhibition [36]: Active

— ChEMBL document CHEMBL5154930, “Design, Synthesis, and Biological Evaluations of DOT1L Peptide Mimetics Targeting the Protein-Protein Interactions between DOT1L and MLL-AF9/MLL-ENL” (J Med Chem, 2022)
